Reference: patent US20260200928A1, “THERAPEUTIC COMPOUNDS” (Sanofi, priority 2022, published 2026)

These compounds were tested against T1, human IL-17A (Homo sapiens, UniProt Q16552) (assay: IL-17A AlphaLISA competition assay (block of IL-17A binding to its receptor IL-17RA)). Conditions: mean IC50 (n≥2), block of IL-17A binding to IL-17RA.
T1 construct: purchased R&D Systems 7955-IL/CF
T1 sequence (Q16552 24-155): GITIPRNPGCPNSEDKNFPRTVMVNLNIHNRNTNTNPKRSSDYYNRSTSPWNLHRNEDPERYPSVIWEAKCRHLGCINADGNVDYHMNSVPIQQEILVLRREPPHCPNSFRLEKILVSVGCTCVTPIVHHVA
Procedure: The ability of the compounds to block binding of IL-17A to its receptor, IL-17RA, was analysed in a competition assay using AlphaLISA technology (Perkin Elmer). The assay is a bead based AlphaLISA where the IL-17RA is captured on the acceptor bead via an Fc tag and IL-17A is captured on the streptavidin donor bead via a biotinylated anti-IL17A antibody.
Assay buffer was prepared by adding 0.05% Tween-20 (v/v) and 0.1% BSA to Phosphate Buffered Saline (PBS). The assay was carried out in 384-well white low volume plates (Perkin Elmer #6008359). 10 μL of a 7.5 nM stock of human recombinant IL-17A (R&D Systems 7955-IL/CF) diluted in assay buffer was dispensed into the assay plate and compounds or DMSO vehicle control were added in a volume of 75 nL using an acoustic dispenser (Beckman). The compounds were pre-incubated with the IL-17A for 30 min at room temperature prior to addition of 5 μL of a 5 nM stock of human recombinant IL-17RA/Fc chimera (R&D Systems 177-IR-100) diluted in assay buffer. The IL-17A was incubated with the receptor for a further 90 minutes at room temperature before addition of 5 μL of a mixture of anti-human Fc IgG acceptor beads (75 μg/mL, Perkin Elmer AL1030) and anti-IL-17A biotin conjugated antibody (5 nM, Abcam, #ab155575) in assay buffer. After a further 30 min incubation at room temperature, 5 μL of streptavidin donor beads (75 μg/mL, Perkin Elmer 6760002S) were added and the plate was incubated for 3 h in the dark.
The AlphaLisa signal was measured using the PheraSTAR plate reader (BMG). Data were analysed using GeneData Screener and fitted to a 4-parameter logistic equation. The IC50 values were calculated using the DMSO vehicle as the negative control and a high concentration (4 μM) of a reference IL-17A inhibitor as the positive control. All compounds were analysed at least in duplicate (n≥2).

| Compound | IC50 [nM] |
| --- | --- |
| COC[C@H](c1ccnc(NC(=O)C(NC(=O)c2nonc2C2CC2)C2CCC(C)(F)CC2)c1)N1C[C@@H](C(F)(F)F)NC1=O (single isomer, unassigned) [Example 297] | 4800 |
| O=C(N[C@H](C(=O)Nc1cc(CN2C[C@@H](C(F)(F)F)NC2=O)ccn1)C1CCC(F)(F)CC1)OCc1ccccc1 (stereo in doubt) [Example 10, Benzyl ((S)-1-(4,4-difluorocyclohexyl)-2-oxo-2-((4-(((S)-2-oxo-4-(trifluoromethyl)imidazolidin-1-yl)methyl)pyridin-2-yl)amino)ethyl)carbamate] | 273 |
| Cn1nccc1C(=O)N[C@H](C(=O)Nc1cc(CN2C[C@@H](C(F)(F)F)NC2=O)ccn1)[C@H]1CC[C@H](C)CC1 [Example 3, 1-Methyl-N—((S)-1-((1r,4S)-4-methylcyclohexyl)-2-oxo-2-((4-(((S)-2-oxo-4-(trifluoromethyl)imidazolidin-1-yl)methyl)pyridin-2-yl)amino)ethyl)-1H-pyrazole-5-carboxamide] | 85 |
| CCc1nocc1C(=O)N[C@H](C(=O)Nc1cc(CN2C[C@@H](C(F)(F)F)NC2=O)ccn1)C1CCC(F)(F)CC1 [Example 13, N-((S)-1-(4,4-difluorocyclohexyl)-2-oxo-2-((4-(((S)-2-oxo-4-(trifluoromethyl)imidazolidin-1-yl)methyl)pyridin-2-yl)amino)ethyl)-3-ethylisoxazole-4-carboxamide] | 122 |
| COCC(NC(=O)CCC(F)(F)F)c1ccnc(NC(=O)[C@@H](NC(=O)c2nccn2C)C2CCC(F)(F)CC2)c1 (single isomer, unassigned) [Example 140] | 7370 |
| CC(C)n1nccc1C(=O)N[C@H](C(=O)Nc1cc([C@@H](C)NC(=O)CCC(F)(F)F)ccn1)C1CCC(F)(F)CC1 [Example 167, N—((S)-1-(4,4-difluorocyclohexyl)-2-oxo-2-((4-((R)-1-(4,4,4-trifluoro-butanamido)ethyl)pyridin-2-yl)amino)ethyl)-1-isopropyl-1H-pyrazole-5-carboxamide] | 222 |
| O=C(CCC(F)(F)F)NC(c1ccnc(NC(=O)[C@@H](NC(=O)c2nonc2C2CC2)C(C2CC2)C2CC2)c1)C1CC1 (single isomer, unassigned) [Example 39] | 138 |
| CCc1nocc1C(=O)N[C@H](C(=O)Nc1cc(C(NC(=O)CCC(F)(F)F)C2CC2)ccn1)C(C1CC1)C1CC1 (single isomer, unassigned) [Example 44] | 151 |
| CCc1nocc1C(=O)N[C@H](C(=O)Nc1cc(O[C@H]2C[C@@H](C(F)(F)F)NC2=O)ccn1)[C@H]1CC[C@H](C)CC1 [Example 321, 3-ethyl-N—((S)-1-((1r,4S)-4-methylcyclohexyl)-2-oxo-2-((4-(((3S,5S)-2-oxo-5-(trifluoromethyl)pyrrolidin-3-yl)oxy)pyridin-2-yl)amino)ethyl)isoxazole-4-carboxamide] | 689 |
| CC(C)(C)OC(=O)N[C@H](C(=O)Nc1cc(COC(=O)NCC(F)(F)F)ccn1)[C@H]1CC[C@H](C)CC1 [Example 26, Tert-butyl ((S)-1-((1r,4S)-4-methylcyclohexyl)-2-oxo-2-((4-((((2,2,2-trifluoroethyl)carbamoyl)oxy)methyl)pyridin-2-yl)amino)ethyl)carbamate] | 10400 |
| CCc1oncc1C(=O)N[C@H](C(=O)Nc1cc([C@@H](COC)N2C[C@@H](C(F)(F)F)NC2=O)ccn1)[C@@H]1C[C@H]2C[C@H]2C1 [Example 318, N—((S)-1-((1R,3s,5S)-bicyclo[3.1.0]hexan-3-yl)-2-((4-((S)-2-methoxy-1-((S)-2-oxo-4-(trifluoromethyl)imidazolidin-1-yl)ethyl)pyridin-2-yl)amino)-2-oxoethyl)-5-ethylisoxazole-4-carboxamide] | 64 |
| O=C(N[C@H](C(=O)Nc1cc(C[C@H]2C[C@@H](C(F)(F)F)NC2=O)ccn1)C1CCC(F)(F)CC1)c1nonc1C1CC1 [Example 222, 4-cyclopropyl-N-((S)-1-(4,4-difluorocyclohexyl)-2-oxo-2-((4-(((3S,5S)-2-oxo-5-(trifluoromethyl)pyrrolidin-3-yl)methyl)pyridin-2-yl)amino)ethyl)-1,2,5-oxadiazole-3-carboxamide] | 70 |
| Cc1nonc1C(=O)N[C@H](C(=O)Nc1cc(C[C@H]2C[C@@H](C(F)(F)F)NC2=O)ccn1)C1CCC(F)(F)CC1 [Example 221, N-((S)-1-(4,4-difluorocyclohexyl)-2-oxo-2-((4-(((3S,5S)-2-oxo-5-(trifluoromethyl)pyrrolidin-3-yl)methyl)pyridin-2-yl)amino)ethyl)-4-methyl-1,2,5-oxadiazole-3-carboxamide] | 157 |
| CCc1conc1C(=O)N[C@H](C(=O)Nc1cc([C@@H](COC)N2C[C@@H](C(F)(F)F)NC2=O)ccn1)C1CC(F)(F)C1 [Example 261, N—((S)-1-(3,3-difluorocyclobutyl)-2-((4-((S)-2-methoxy-1-((S)-2-oxo-4-(trifluoromethyl)imidazolidin-1-yl)ethyl)pyridin-2-yl)amino)-2-oxoethyl)-4-ethylisoxazole-3-carboxamide] | 189 |
| CC(C)(C)OC(=O)N1CCn2c(ccc2C(=O)N[C@H](C(=O)Nc2cc(CN3C[C@@H](C(F)(F)F)NC3=O)ccn2)C2CCC(F)(F)CC2)C1 [Example 11, Tert-butyl 6-(((S)-1-(4,4-difluorocyclohexyl)-2-oxo-2-((4-(((S)-2-oxo-4-(trifluoromethyl)imidazolidin-1-yl)methyl)pyridin-2-yl)amino)ethyl)carbamoyl)-3,4-dihydropyrrolo[1,2-a]pyrazine-2(1H)-carboxylate] | 359 |
| 1-isopropyl-N-((1S)-2-((4-((S)-2-methoxy-1-((S)-2-oxo-4-(trifluoromethyl)imidazolidin-1-yl)ethyl)pyridin-2-yl)amino)-2-oxo-1-(4-(trifluoromethyl)cyclohexyl)ethyl)-1H-pyrazole-5-carboxamide [Example 303] | 46 |
| CC[C@H](c1ccnc(NC(=O)[C@@H](NC(=O)c2ccnn2C)C2CCC(F)(F)CC2)c1)N1C[C@@H](C(F)(F)F)NC1=O [Example 214, N-((S)-1-(4,4-difluorocyclohexyl)-2-oxo-2-((4-((R)-1-((S)-2-oxo-4-(trifluoromethyl)imidazolidin-1-yl)propyl)pyridin-2-yl)amino)ethyl)-1-methyl-1H-pyrazole-5-carboxamide] | 46 |
| C[C@@H]1CN(Cc2ccnc(NC(=O)[C@@H](NC(=O)c3ccnn3C)C(C3CC3)C3CC3)c2)C(=O)N1 [Example 33, N—((S)-1,1-dicyclopropyl-3-((4-(((R)-4-methyl-2-oxoimidazolidin-1-yl)methyl)pyridin-2-yl)amino)-3-oxopropan-2-yl)-1-methyl-1H-pyrazole-5-carboxamide] | 1010 |
| COCC(c1ccnc(NC(=O)[C@@H](NC(=O)c2nc(Br)ccc2C)[C@H]2CC[C@H](C)CC2)c1)N1C[C@@H](C(F)(F)F)NC1=O (single isomer, unassigned) [Example 94] | 4860 |
| COC[C@H](c1ccnc(NC(=O)[C@@H](NC(=O)Cc2cccc(C#N)c2)C2CCC(F)(F)CC2)c1)N1C[C@@H](C(F)(F)F)NC1=O [Example 206, (S)-2-(2-(3-cyanophenyl)acetamido)-2-(4,4-difluorocyclohexyl)-N-(4-((S)-2-methoxy-1-((S)-2-oxo-4-(trifluoromethyl)imidazolidin-1-yl)ethyl)pyridin-2-yl)acetamide] | 157 |
| CC(C)n1nccc1C(=O)N[C@H](C(=O)Nc1cc(CN2C[C@@H](C(F)(F)F)NC2=O)ccn1)C1CCC(F)(F)CC1 [Example 12, N-((S)-1-(4,4-difluorocyclohexyl)-2-oxo-2-((4-(((S)-2-oxo-4-(trifluoromethyl)imidazolidin-1-yl)methyl)pyridin-2-yl)amino)ethyl)-1-isopropyl-1H-pyrazole-5-carboxamide] | 106 |
| COC[C@H](c1ccnc(NC(=O)[C@@H](NC(=O)c2ccnn2C)C2CCC(C(F)(F)F)CC2)c1)N1C[C@@H](C(F)(F)F)NC1=O (stereo partly drawn) [Example 302, N-((1S)-2-((4-((S)-2-methoxy-1-((S)-2-oxo-4-(trifluoromethyl)imidazolidin-1-yl)ethyl)pyridin-2-yl)amino)-2-oxo-1-(4-(trifluoromethyl)-cyclohexyl)ethyl)-1-methyl-1H-pyrazole-5-carboxamide] | 44 |
| C[C@H]1CC[C@H]([C@H](NC(=O)C2(F)CC2)C(=O)Nc2cc(CN3C[C@@H](C(F)(F)F)NC3=O)ccn2)CC1 [Example 67, 1-fluoro-N-((S)-1-((1r,4S)-4-methylcyclohexyl)-2-oxo-2-((4-(((S)-2-oxo-4-(trifluoromethyl)imidazolidin-1-yl)methyl)pyridin-2-yl)amino)ethyl)cyclopropane-1-carboxamide] | 809 |
